The values below come from paper PMC8032624, “Prediction of dose-dependent in vivo acetylcholinesterase inhibition by profenofos in rats and humans using physiologically based kinetic (PBK) modeling-facilitated reverse dosimetry” (Archives of Toxicology, 2021).

A short description of one data set: in vitro. Format: in vitro ADME. To be noted: conversion of profenofos to BCP; for Km: pH 7.4. The method, then: Incubations of profenofos with rat and human liver microsomes, liver cytosol and plasma were performed to quantify in vitro rates of BCP formation. Conditions were optimized to be linear for metabolite formation with regard to incubation time and microsomal, cytosolic and plasma protein concentration (data not shown). The final incubations were carried out in 100 mM Tris HCl (pH 7.4, 37 °C) containing (final concentrations) 5 mM MgCl2, 2 mM CaCl2 [to stimulate PON1 activity (Carr et al. [2015])], 2 mM NADPH (cofactor to also include CYP-mediated metabolism), enzyme preparation (final concentration 2 mg/ml for human liver microsomes and cytosol and 4.4 mg/ml for human plasma; 0.5 mg/ml for rat microsomes and cytosol and 1.65 mg/ml for rat plasma) and profenofos (at final concentrations ranging from 1 to 100 μM, added from 100 times concentrated stock solutions in DMSO). Control incubations were performed in the absence of microsomes, cytosol or plasma. After 2 min pre-incubation, the reaction was initiated by adding the substrate and mixtures were incubated for 2 min in a 37 °C water bath. The total volume of the incubation mixtures was 200 μl. The reaction was terminated by the addition of 50 μl ice cold ACN and samples were kept on ice. The mixture was centrifuged at 14,000g for 20 min at 4 °C and the supernatant was analyzed using UPLC-UV.
All samples from incubations were analyzed using a Waters Acquity UPLC H class system that consisted of a quaternary solvent manager, a sample manager, and a photodiode array (PDA) detector, equipped with a Water Acquity UPLC® BEH C18 column (1.7 μm, 2.1 × 50 mm) and Waters Xbridge UPLC® BEH C18 pre-column (2.5 μM, 2.1 × 5 mm). The temperature of the column was kept at 40 °C and the auto sampler at 10 °C during the UPLC analysis. The mobile phases used for the analysis consisted of (A) 0.1% TFA in nanopure water and (B) 100% ACN. A gradient elution at a flow rate of 0.6 ml/min was applied for the analysis with the initial condition of 100% A:0% B (v/v), changing in a linear way to 0% A:100% B from 0 to 6 min, which was maintained for 30 s, and then changed back to the initial conditions in 30 s, which were maintained for 1 min. The injection volume for each sample was 3.5 μl.
Under these conditions, the retention times of profenofos and BCP were 4.76 and 3.37 min, respectively. The amounts of profenofos and BCP were quantified by integrating the peak areas at 237 nm using calibration curves that were prepared using commercially available standards.
Kinetic parameters including the apparent maximum velocity (Vmax) and the apparent Michaelis–Menten constant (Km) for BCP formation were obtained by fitting the data for the substrate concentration-dependent rate of conversion (expressed in nmol/min/mg protein) using GraphPad Prism 5, version 5.04 (San Diego, California, USA) to the standard Michaelis–Menten equation: V=Vmax∗S/(Km+S) in which the S represents the concentration of substrate, expressed in μM, V and Vmax the velocity and the maximum velocity of the reaction, respectively, expressed in nmol/min/mg protein, and Km the apparent Michaelis–Menten constant, expressed in μM. The kinetic parameter values for conversion of profenofos to BCP in the liver microsomes, liver cytosol and plasma were determined. To determine the catalytic efficiency, Vmax was divided by the Km.

In a further data set the target is T1, rat RBC AChE (Rattus norvegicus, UniProt P37136).
T1 construct: contained 0.005 mg/ml erythrocyte ‘ghost’ membrane protein; tissue BioIVT; host or cells: rat blood; erythrocyte 'ghost' membranes (Sprague-Dawley rats)
T1 sequence (P37136 other isoform, or with tags, fused parts or gaps): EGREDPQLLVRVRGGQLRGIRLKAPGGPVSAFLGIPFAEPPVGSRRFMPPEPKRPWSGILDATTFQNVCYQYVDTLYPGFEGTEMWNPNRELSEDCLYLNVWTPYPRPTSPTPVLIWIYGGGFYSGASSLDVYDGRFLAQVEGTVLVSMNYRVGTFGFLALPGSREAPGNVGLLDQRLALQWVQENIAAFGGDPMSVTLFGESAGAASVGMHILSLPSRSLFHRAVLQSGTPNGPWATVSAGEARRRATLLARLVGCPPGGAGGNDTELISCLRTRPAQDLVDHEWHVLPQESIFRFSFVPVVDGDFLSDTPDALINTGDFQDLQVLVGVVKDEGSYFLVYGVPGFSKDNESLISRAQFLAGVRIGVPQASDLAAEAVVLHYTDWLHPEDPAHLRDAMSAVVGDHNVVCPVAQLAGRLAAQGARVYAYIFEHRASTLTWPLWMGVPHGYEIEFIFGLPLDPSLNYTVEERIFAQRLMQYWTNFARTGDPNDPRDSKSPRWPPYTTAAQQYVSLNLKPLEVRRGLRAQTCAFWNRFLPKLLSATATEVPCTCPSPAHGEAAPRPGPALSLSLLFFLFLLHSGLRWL
Briefly: In vitro inhibition of rat erythrocyte (RBC) AChE. Format: biochemical. The method, then:
To perform reverse dosimetry of in vitro AChE inhibition by profenofos, first the in vitro AChE activity in the absence or presence of increasing concentrations of profenofos was determined. For humans, commercially available recombinant AChE was used. For rats, no commercially available recombinant AChE was available, so rat AChE was obtained from rat blood as described below.
AChE activity was expressed as enzyme activity (percent of control). The concentration of profenofos that produced a 50% decrease in AChE activity (IC50) was determined from best‐fit plots of the mean (± SD) percentages of inhibition vs. the 10log logarithm of profenofos concentrations using GraphPad Prism 5, version 5.04 (San Diego, California, USA) equation: Y=100/(1+10^(X-LogIC50)).
Rat blood samples were processed according to a method reported by Larsen et al. ([2019]) with a few modifications to isolate the extrinsic membrane bound AChE. Briefly, the blood sample (2 ml) was centrifuged at 3000g for 15 min to separate plasma and cells. […] Aliquots of erythrocyte ‘ghost’ membrane preparations were used for protein measurement using the Pierce™ BCA Protein Assay Kit (Thermofisher) with BSA as standard for quantification (Lowry et al. [1951]), and for AChE activity assessment.
The effect of profenofos on rat AChE activity was assessed as described above for human recombinant AChE, with a few modifications. […]

For the compound `CCCSP(=O)(OCC)Oc1ccc(Br)cc1Cl` (stereo not shown) [profenofos, O-(4-bromo-2-chlorophenyl) O-ethyl S-propyl phosphorothioate], the Vmax in the data set “in vitro” (rat liver cytosol) is reported as 0.95 nmol/min/mg cytosolic protein; in the data set “in vitro” (rat liver microsomes), 8.9 nmol/min/mg microsomal protein; in “in vitro” (rat plasma), 0.68 nmol/min/mg plasma protein. The values for the Km in “in vitro” (rat liver cytosol), in the data set “in vitro” (rat liver microsomes) and in the data set “in vitro” (rat plasma) were 0.34 µM, 8.1 µM and 3.6 µM, respectively. At rat RBC AChE, this compound gave a concentration for half-maximal inhibition (IC50) of 312 nM.

As a reminder, the Km is the substrate concentration at which the rate is half of its maximum. A word on the IC50: it is the concentration that inhibits the measured activity by half. Read a low IC50 as greater potency.
